For the experiment, the target named is T1, human GPR119 (Homo sapiens, UniProt Q8TDV5).
T1 construct: host or cells: HEK293-CRE-β-lactamase cells expressing hGPR119
T1 sequence (Q8TDV5 1-335): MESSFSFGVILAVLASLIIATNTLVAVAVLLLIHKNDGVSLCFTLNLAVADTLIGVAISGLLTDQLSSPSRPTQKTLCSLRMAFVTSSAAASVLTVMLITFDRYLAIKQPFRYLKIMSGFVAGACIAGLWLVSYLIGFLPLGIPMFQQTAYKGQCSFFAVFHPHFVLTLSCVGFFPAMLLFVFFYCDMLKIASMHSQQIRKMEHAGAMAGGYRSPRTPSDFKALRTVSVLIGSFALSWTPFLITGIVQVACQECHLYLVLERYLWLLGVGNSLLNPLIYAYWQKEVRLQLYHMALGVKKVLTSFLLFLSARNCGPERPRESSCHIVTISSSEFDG
Description: GPR119 agonist cell-based hGPR119 HEK293-CRE β-lactamase reporter assay. The conditions noted are these: one value per run; for EC50: hGPR119-HEK-CRE-β-lactamase cells, 16 hours incubation; for Emax: read-out: Intrinsic Activity*. Here is the method:
The assay for GPR119 agonists utilizes a cell-based (hGPR119 HEK293-CRE β-lactamase) reporter construct where agonist activation of human GPR119 is coupled to β-lactamase production via a cyclic AMP response element (CRE). GPR119 activity is then measured utilizing a FRET-enabled R-lactamase substrate, CCF4-AM (Live Blazer FRET-B/G Loading kit, Invitrogen cat #K1027). Specifically, hGPR119-HEK-CRE-β-lactamase cells (Invitrogen 2.5×10^7/mL) were removed from liquid nitrogen storage, and diluted in plating medium (Dulbecco's modified Eagle medium high glucose (DMEM; Gibco Cat #11995-065), 10% heat inactivated fetal bovine serum (HIFBS; Sigma Cat #F4135), 1× MEM Nonessential amino acids (Gibco Cat #15630-080), 25 mM HEPES pH 7.0 (Gibco Cat #15630-080), 200 nM potassium clavulanate (Sigma Cat #P3494). The cell concentration was adjusted using cell plating medium and 50 μL of this cell suspension (12.5×10^4 viablecells) was added into each well of a black, clear bottom, poly-d-lysine coated 384-well plate (Greiner Bio-One cat #781946) and incubated at 37° C. in a humidified environment containing 5% carbon dioxide. After 4 hours the plating medium was removed and replaced with 40 μL of assay medium (Assay medium is plating medium without potassium clavulanate and HIFBS). Varying concentrations of each compound to be tested was then added in a volume of 10 uL (final DMSO≦0.5%) and the cells were incubated for 16 hours at 37° C. in a humidified environment containing 5% carbon dioxide. Plates were removed from the incubator and allowed to equilibrate to room temperature for approximately 15 minutes. 10 uL of 6× CCF4/AM working dye solution (prepared according to instructions in the Live Blazer FRET-B/G Loading kit, Invitrogen cat #K1027) was added per well and incubated at room temperature for 2 hours in the dark. Fluorescence was measured on an EnVision fluorimetric plate reader, excitation 405 nm, emission 460 nm/535 nm. EC50 determinations were made from agonist-response curves analyzed with a curve fitting program using a 4-parameter logistic dose-response equation.

Setting [1] is: percent of maximal activity relative to standard GPR119 agonist at a final concentration of 10 μM.

The source of these data is patent US20120095028A1, “3-OXA-7-AZABICYCLO[3.3.1]NONANES” (Pfizer Inc., priority 2009, published 2012).

Where “and” joins values, the source holds several entries; their conditions need not be identical. Equal entries are not always repeated.

For orientation: EC50 means the concentration that produces a half-maximal response. A lower EC50 goes with an effect from little substance. As to `CC(C)OC(=O)N1C[C@H]2COC[C@@H](C1)[C@@H]2Oc1ncnc2c1CCN2c1ccc(S(C)(=O)=O)cc1F` [Example 1, Isopropyl 9-syn-({7-[2-fluoro-4-(methylsulfonyl)phenyl]-6,7-dihydro-5H-pyrrolo[2,3-d]pyrimidin-4-yl}oxy)-3-oxa-7-azabicyclo[3.3.1]nonane-7-carboxylate], the EC50 was 10.5 nM and 12.8 nM and 23.3 nM. Further, under setting [1], the “Intrinsic Activity*” value is 88% and 87%; the Emax came to 90%.
`CC(C)OC(=O)N1C[C@H]2COC[C@@H](C1)[C@H]2Oc1ncnc2c1CCN2c1ccc(S(C)(=O)=O)cc1F` [Example 2, Isopropyl 9-anti-({7-[2-fluoro-4-(methylsulfonyl)phenyl]-6,7-dihydro-5H-pyrrolo[2,3-d]pyrimidin-4-yl}oxy)-3-oxa-7-azabicyclo[3.3.1]nonane-7-carboxylate] came in with an EC50 of 23.8 nM. Also, the Emax under setting [1] was found to be 93%.
